The record followed here is ChEMBL document CHEMBL2412952, “2-Substituted 4-hydroxybutanamides as potential inhibitors of γ-aminobutyric acid transporters mGAT1-mGAT4: synthesis and biological evaluation” (Bioorg Med Chem, 2013).

Test [1] has as its target T1, Sodium- and chloride-dependent GABA transporter 1 (Mus musculus, UniProt P31648). Nature of the test: Inhibition of mouse GAT1-mediated [3H]GABA uptake stably transfected in HEK293 cells. It is filed as cell-based.
For test [2], the target named is Sodium- and chloride-dependent GABA transporter 1 (Mus musculus) (UniProt P31648). Kind of test: Binding affinity to mouse GAT1 stably transfected in HEK293 cells assessed as residual binding at 100 uM relative to control. The class given is cell-based.
The nature of test [3]: Inhibition of mouse GAT4-mediated [3H]GABA uptake stably transfected in HEK293 cells. It is filed as cell-based.
For test [4], the system named is GABA transporter 2 (Mus musculus). Nature of the test: Inhibition of mouse GAT2-mediated [3H]GABA uptake stably transfected in HEK293 cells assessed as residual uptake at 100 uM relative to control.
Test [5] concerns the target Sodium- and chloride-dependent GABA transporter 1 (Mus musculus) (UniProt P31648). Kind of test: Inhibition of mouse GAT1-mediated [3H]GABA uptake stably transfected in HEK293 cells assessed as residual uptake at 100 uM relative to control. It is filed as cell-based.
A further test has as its system HEK293. Nature of the test: Inhibition of mouse GAT4-mediated [3H]GABA uptake stably transfected in HEK293 cells assessed as residual uptake at 100 uM relative to control. It is filed as cell-based.
Test [6] concerns the target T1, Sodium- and chloride-dependent GABA transporter 1. Kind of test: Binding affinity to mouse GAT1 stably transfected in HEK293 cells by NO-711 binding assay. It is filed as cell-based.
For test [7], the system named is GABA transporter 3 (Mus musculus). Kind of test: Inhibition of mouse GAT3-mediated [3H]GABA uptake stably transfected in HEK293 cells assessed as residual uptake at 100 uM relative to control.

The term IC50 denotes the point on the concentration scale where inhibition reaches its midpoint. In general, Ki refers to a measure of affinity in units of concentration, obtained from inhibition or displacement. A lower Ki goes with higher affinity.

For `Cc1ccc(CNC(=O)[C@@H](C[C@H](C)O)N2CCC(=C(c3ccccc3)c3ccccc3)CC2)cc1` (relative stereo), the IC50 in test [1] was 53.7 µM; in test [3], 34.7 µM. The Activity in test [2] amounted to 57%.

Consider `O=C(NCc1ccccc1Cl)C(CCO)N1CCC(C(c2ccccc2)c2ccccc2)CC1` (stereo unspecified), for which the figures for the IC50 in test [1] and in test [3] were 19.5 µM and 67.6 µM, respectively. In addition, the Activity in test [2] was found to be 89%.

With `C[C@H](O)C[C@H](C(=O)NCc1ccccc1)N1CCC(=C(c2ccccc2)c2ccccc2)CC1` (relative stereo), the figures for the IC50 in test [1] and in test [3] were 24 µM and 72.4 µM, respectively. Moreover, the Activity in test [2] was determined as 51%.

In the case of `CN(CCC=C(c1ccccc1)c1ccccc1)C(CCO)C(=O)NCc1ccccc1Cl` (stereo unspecified), the IC50 in test [1] is 19.1 µM; in test [3], 10 µM. The Activity in test [2] amounted to 54%.

`O=C(NCc1ccc(Cl)cc1)C(CCO)N1CCC(C(c2ccccc2)c2ccccc2)CC1` (stereo unspecified): the IC50 is 24 µM in test [1] and 69.2 µM in test [3]. In addition, the Activity in test [2] was 68%.

For `O=C(NCc1ccc(F)cc1)C(CCO)NCCCC(c1ccccc1)c1ccccc1` (stereo unspecified), the IC50 in test [1] is 38.9 µM; in test [3], 25.1 µM. For the same molecule, the Activity in test [2] is 82%.

For `CN(CCCC(c1ccccc1)c1ccccc1)C(CCO)C(=O)NCc1ccccc1` (stereo unspecified), the IC50 in test [1] is 58.9 µM; in test [3], 36.3 µM. In addition, in test [2], the Activity was determined as 79%.

Consider `CN(CCC=C(c1ccccc1)c1ccccc1)C(CCO)C(=O)NCc1ccc(Cl)cc1` (stereo unspecified), for which the IC50 is 23.4 µM in test [1] and 11.2 µM in test [3]. Further, in test [2], the Activity amounted to 61%.

`CN(CCCC(c1ccccc1)c1ccccc1)C(CCO)C(=O)NCc1ccccc1Cl` (stereo unspecified): the IC50 in test [1] is 37.2 µM; in test [3], 25.7 µM. Further, in test [2], the Activity was 85%.

In the case of `O=C(NCc1ccccc1)C(CCO)NCCCC(c1ccccc1)c1ccccc1` (stereo unspecified), the IC50 in test [1] was 61.7 µM; in test [3], 38.9 µM. The Activity in test [2] was 62%.

In the case of `C[C@H](O)C[C@H](C(=O)NCc1ccccc1Cl)N1CCC(=C(c2ccccc2)c2ccccc2)CC1` (relative stereo), the Activity in test [4] came to 73%; in test [2] it was 95%; in test [5], 47%; in the test on HEK293, 71%.

Regarding `C[C@@H](O)C[C@H](C(=O)NCc1ccccc1)N1CCC(=C(c2ccccc2)c2ccccc2)CC1` (relative stereo), the IC50 is 7.76 µM in test [1] and 89.1 µM in test [3]. The Activity in test [2] is 50%.

For `Cc1ccc(CNC(=O)C(CCO)NCCCC(c2ccccc2)c2ccccc2)cc1` (stereo unspecified), the values for the IC50 in test [1] and in test [3] were 55 µM and 23.4 µM, respectively. In test [6], this molecule had a Ki of 51.3 µM.

For the molecule `O=C(NCc1ccc(Cl)cc1)C(CCO)NCCCC(c1ccccc1)c1ccccc1` (stereo unspecified), the IC50 was 23.4 µM in test [1] and 16.6 µM in test [3]. Moreover, in test [6], affinity was put at a Ki of 56.2 µM.

Turning to `C[C@@H](O)C[C@H](C(=O)NCc1ccc(F)cc1)N1CCC(=C(c2ccccc2)c2ccccc2)CC1` (relative stereo), the IC50 in test [1] is 16.2 µM; in test [3], 41.7 µM. The same molecule had a Ki in test [6] of 42.7 µM.

Regarding `C[C@@H](O)C[C@H](C(=O)NCc1ccccc1Cl)N1CCC(=C(c2ccccc2)c2ccccc2)CC1` (relative stereo), the Activity in test [7] was 79%; in test [4], 69%; in test [2] it was 99%; in test [5] it was 95%; with HEK293 it was 99%.

As for `O=C(NCc1ccccc1Cl)C(CCO)NCCCC(c1ccccc1)c1ccccc1` (stereo unspecified), the IC50 in test [1] is 33.1 µM; in test [3] it was 20.9 µM. In addition, in test [6], the Ki is 46.8 µM.

With `Cc1ccc(CNC(=O)C(CCO)N(C)CCCC(c2ccccc2)c2ccccc2)cc1` (stereo unspecified), the values for the half-inhibitory concentration (IC50) in test [1] and in test [3] were 37.2 µM and 20.4 µM, respectively. The molecule further gave a Ki in test [6] of 81.3 µM.

Regarding `Cc1ccc(CNC(=O)C(CCO)N(C)CCC=C(c2ccccc2)c2ccccc2)cc1` (stereo unspecified), the IC50 in test [1] was 22.4 µM; in test [3], 16.6 µM. The Activity in test [2] was 50%.

For the molecule `CN(CCCC(c1ccccc1)c1ccccc1)C(CCO)C(=O)NCc1ccc(F)cc1` (stereo unspecified), the IC50 in test [1] is 97.7 µM; in test [3] it was 58.9 µM. Also, the Activity in test [2] is 74%.

Regarding `Cc1ccc(CNC(=O)C(CCO)N2CCC(C(c3ccccc3)c3ccccc3)CC2)cc1` (stereo unspecified), the figures for the concentration for half-maximal inhibition (IC50) in test [1] and in test [3] were 30.2 µM and 87.1 µM, respectively. Moreover, the Activity in test [2] is 55%.

Take `CN(CCCC(c1ccccc1)c1ccccc1)C(CCO)C(=O)NCc1ccc(Cl)cc1` (stereo unspecified): the IC50 in test [1] is 38.9 µM; in test [3] it was 22.9 µM. In addition, in test [2], the Activity was 67%.

Turning to `C[C@H](O)C[C@H](C(=O)NCc1ccc(F)cc1)N1CCC(=C(c2ccccc2)c2ccccc2)CC1` (relative stereo), in test [1], the midpoint of inhibition, the IC50, lay at 34.7 µM. In addition, the Activity was 52% in test [2] and 65% with HEK293.

For `CN(CCC=C(c1ccccc1)c1ccccc1)C(CCO)C(=O)NCc1ccccc1` (stereo unspecified), the IC50 in test [1] is 10.5 µM; in test [3] it was 22.9 µM. Further, in test [2], the Activity was determined as 50%.

With `Cc1ccsc1C(=CCCN1CCC[C@@H](C(=O)O)C1)c1sccc1C` [TIAGABINE], the Ki in test [6] was 0.0389 µM. The Activity with HEK293 is 73%.

In the case of `O=C(NCc1ccccc1)C(CCO)N1CCC(C(c2ccccc2)c2ccccc2)CC1` (stereo unspecified), the IC50 in test [1] is 13.2 µM; in test [3] it was 58.9 µM. In addition, the values for the Activity in test [4] and in test [2] were 51% and 55%, respectively.

Take `CN(CCC=C(c1ccccc1)c1ccccc1)C(CCO)C(=O)NCc1ccc(F)cc1` (stereo unspecified): the half-inhibitory concentration (IC50) was 21.9 µM in test [1] and 20 µM in test [3]. The Activity in test [2] came out at 73%.

Turning to `Cc1ccc(CNC(=O)C(CCO)N2CCC(=C(c3ccccc3)c3ccccc3)CC2)cc1` (stereo unspecified), the IC50 in test [1] was 38 µM; in test [3] it was 33.9 µM. The Ki in test [6] was 43.7 µM.

For `O=C(NCc1ccc(Cl)cc1)C(CCO)N1CCC(=C(c2ccccc2)c2ccccc2)CC1` (stereo unspecified), the results for the IC50 in test [1] and in test [3] were 33.9 µM and 17.8 µM, respectively. This molecule also showed a Ki in test [6] of 75.9 µM.

As for `O=C(NCc1ccc(F)cc1)C(CCO)N1CCC(C(c2ccccc2)c2ccccc2)CC1` (stereo unspecified), the values for the IC50 in test [1] and in test [3] were 18.2 µM and 81.3 µM, respectively. For the same molecule, in test [2], the Activity is 49%.

Consider `O=C(NCc1ccccc1Cl)C(CCO)N1CCC(=C(c2ccccc2)c2ccccc2)CC1` (stereo unspecified), for which the Activity is 68% in test [2] and 58% in test [5]. Further, the half-inhibitory concentration (IC50) in test [3] was 67.6 µM.

In the case of `Cc1ccc(CNC(=O)[C@@H](C[C@@H](C)O)N2CCC(=C(c3ccccc3)c3ccccc3)CC2)cc1` (relative stereo), the figures for the Activity in test [2] and in test [5] were 58% and 46%, respectively.

For the molecule `C[C@H](O)C[C@H](C(=O)NCc1ccc(Cl)cc1)N1CCC(=C(c2ccccc2)c2ccccc2)CC1` (relative stereo), the figures for the 50% inhibitory concentration (IC50) in test [1] and in test [3] were 66.1 µM and 69.2 µM, respectively. Besides, the Activity in test [2] came out at 69%.
